{"source": "patent US20130295672A1", "about": "“STEM CELL CULTURE MEDIA AND METHODS” (CONSEJO SUPERIOR DE INVESTIGACIONES CIENTÍFICAS, priority 2010, published 2013)", "molecules": {"B1": {"name": "IFN-γ: cytokine from Peprotech; inducer of BAFF (protein, UniProt P01579 24-161, looked up)", "Interferon gamma": "QDPYVKEAENLKKYFNAGHSDVADNGTLFLGILKNWKEESDRKIMQSQIVSFYFKLFKNFKDDQSIQKSVETIKEDMNVKFFNSNKKKRDDFEKLTNYSVTDLNVQRKAIHELIQVMAELSPAAKTGKRKRSQMLFRG"}}, "format_in_all_cases": "cell-based, human", "key": {"[1]": {"system": "APRIL and BAFF secretion in hASC", "test": "ELISA of APRIL and BAFF concentrations in hASC medium", "procedure": "FIG. 4. Modulation of APRIL and BAFF in hASC. Immunosuppressive effect (A): hASC cells were cultured with 100 ng/ml APRIL (light grey bar), BAFF (dark grey bar) or no stimulus (white bar) and then stimulated with 1 μg/ml LPS or poly I:C. […] Data were acquired using a FACScalibur cytometer and analyzed using FCAP array software (BD Bioscience). (B): Immunosupression assay: Allogeneic hASCs were cultured with activated CFSE labelled PBLs at a ratio of 1:25 (hASC: PBLs) in the presence or absence of BAFF or APRIL (100 ng/ml). After 5 days cells were harvested, analyzed by flow cytometry in a FACScalibur cytometer (BD Bioscience) and acquired for CFSE. Percentage of proliferating cells (relative to PBLs alone) in the last two generations is shown. Mean and standard deviation of experiments with 6 different buffy coats are represented. Buffy coats were provided by the National Transfusion Centre of the Comunidad Autónoma of Madrid. PBLs were isolated by density centrifugation gradient using Ficollplaque Plus (GE Healthcare Biosciences AB, Uppsala) (C): hASC cells were cultured with IFNγ. Supernatants were collected five days later. […] IL-6 and IL-8 concentration in the medium after 48 h, was measured by the Cytometric Bead Array (CBA) immunoassay (BD Bioscience) following manufacturer instructions. Data were acquired using a FACScalibur cytometer and analyzed using FCAP array software (BD Bioscience). […] Supernatants were collected five days later. APRIL and BAFF concentrations in the medium were determined by ELISA (R&D Systems for BAFF, Bender MedSystem for APRIL)."}, "hASC [2]": {"system": "hASC", "test": "MTS assay (CellTiter AQueous One Solution Cell Proliferation Assay), hASC viability/growth", "conditions": "for hASC growth in MTS assay, considering basal growth 100%: 100 ng/ml, 6 days in culture, normalized to cells without stimuli (100%); for promotion of cell growth when ERK was inhibited: with ERK inhibitor U0126, effect kept when PI3K was inhibited", "procedure": "(§1) FIG. 2. APRIL and BAFF enhance hASC viability and proliferation. (A): Cell viability was assessed by the CellTiter AQueous One Solution Cell Proliferation Assay (Promega, Madison, Wis.) according to manufacturer's protocols. hASC (3.5×10^3 cells/well) were cultured for 6 days in 96-well plates with 100 ng/ml APRIL or BAFF. Absorbance (OD 490 nm) was measured in an ELISA plate reader (n=at least three experiments). Values were normalized to the absorbance of cells cultured without stimuli (100%). (B): Histograms show cell proliferation measured by a […] BrdU incorporation assay. hASC were cultured in p60 plates with 100 ng/ml APRIL or BAFF; BrdU (20 μM) was added for the last three days. At day 6, BrdU incorporation was detected by flow cytometry using an anti-BrdU antibody. Numerals indicate percentage of cells positive for BrdU and, therefore, actively proliferating. Cell viability was assessed by the CellTiter AQueous One Solution Cell Proliferation Assay (Promega, Madison, Wis.) according to manufacturer's protocols. hASC (3.5×10^3 cells/well) were cultured for 6 days in 96-well plates with 100 ng/ml APRIL or BAFF. Absorbance (OD 490 nm) was measured in an ELISA plate reader (n=at least three experiments). Values were normalized to the absorbance of cells cultured without stimuli (100%). Additionally, cell proliferation was measured by a colorimetric BrdU incorporation assay. hASC were cultured in p60 plates with 100 ng/ml APRIL or BAFF; BrdU (20 μM) was added for the last three days. At day 6, BrdU incorporation was detected by flow cytometry using an anti-BrdU antibody. Three independent MTS and BrdU assays were performed and triplicates included for each condition."}, "hASC [3]": {"system": "hASC", "test": "BrdU incorporation assay by flow cytometry, hASC proliferation", "conditions": "100 ng/ml, day 6, BrdU for the last three days; control 13%", "procedure": "as §1, with “Additionally, cell proliferation was measured by a colorimetric BrdU incorporation assay. hASC were cultured in p60 plates with 100 ng/ml APRIL or BAFF; BrdU (20 μM) was added for the last three days.” left out, “Three independent MTS and BrdU assays were performed and triplicates included for each condition.” left out"}, "Akt": {"system": "Akt", "test": "Western blot phosphorylation kinetics in stimulated hASC: Akt", "conditions": "100 ng/ml, 10-120 min", "procedure": "(§2) FIG. 3. APRIL and BAFF-mediated signaling in hASC. hASC were stimulated with 100 ng/ml APRIL or BAFF (10, 30, 60, 120 min, 37° C.), placed on ice, washed with ice-cold PBS, and lysed with cell lysis buffer (Roche, Indianapolis, Ind.). Extracts were quantified by absorbance, resolved in SDS-PAGE and analyzed by immunoblot. Antibodies used were anti-phospho-Akt (Ser473), -Akt, -phospho-ERK1/2 (Thr202/Tyr204), and -ERK1/2) (BD Bioscience); secondary antibodies were horseradish peroxidase-conjugated bovine anti-rabbit and goat anti-mouse IgG. (B): Histograms show cell proliferation measured by BrdU incorporation as in (FIG. 2B), with addition of the ERK inhibitor U0126 (2.5 μM; Sigma) or the PI3K inhibitor LY294002 (10 μM; Calbiochem) to the culture on days 0 and 3. […]\n(§3) hASC were stimulated with 100 ng/ml APRIL or BAFF (10, 30, 60, 120 min, 37° C.), placed on ice, washed with ice-cold PBS, and lysed with cell lysis buffer (Roche, Indianapolis, Ind.). Extracts were quantified by absorbance, resolved in SDS-PAGE and analyzed by immunoblot. […]\n(§4) Plated hASC (1.5×10^4 cells/cm2) were stimulated with APRIL or BAFF (100 ng/ml) and lysed with lysis buffer (Roche) with protease and phosphatase inhibitors. Proteins in extracts were quantified by absorbance with the BCA protein assay kit (Pierce), and equal amounts of protein homogenate resolved in SDS-PAGE, and transferred to PVDF membranes (Millipore). […]"}, "ERK1/2": {"system": "ERK1/2", "test": "Western blot phosphorylation kinetics in stimulated hASC: ERK1/2", "conditions": "100 ng/ml, 10-120 min", "procedure": "as §2, §3, §4"}, "JNK, IκBα or p38": {"system": "JNK, IκBα or p38", "test": "Western blot phosphorylation kinetics in stimulated hASC: JNK, IκBα, p38"}, "PBMC proliferation": {"system": "PBMC proliferation", "test": "Immunosuppression assay: proliferation of activated CFSE-labeled PBMC with allogeneic hASC", "conditions": "100 ng/ml, day 5", "procedure": "FIG. 4. Modulation of APRIL and BAFF in hASC. Immunosuppressive effect (A): hASC cells were cultured with 100 ng/ml APRIL (light grey bar), BAFF (dark grey bar) or no stimulus (white bar) and then stimulated with 1 μg/ml LPS or poly I:C. […] Data were acquired using a FACScalibur cytometer and analyzed using FCAP array software (BD Bioscience). (B): Immunosupression assay: Allogeneic hASCs were cultured with activated CFSE labelled PBLs at a ratio of 1:25 (hASC: PBLs) in the presence or absence of BAFF or APRIL (100 ng/ml). After 5 days cells were harvested, analyzed by flow cytometry in a FACScalibur cytometer (BD Bioscience) and acquired for CFSE. […]\nFor CFSE labeling, freshly purified PBMC (10-20×106) were washed extensively to remove FBS, resuspended in 200 μl of a 10 μM CFSE solution (Sigma), and incubated with constant shaking (37° C., 10 min) Cells were washed and cultured overnight, and one aliquot was used to set up and control FL-1 voltage for CFSE in the cytometer. […] At day 5, PBMC were harvested and cell proliferation was determined according to loss of CFSE in the FL-1 channel. Data were analyzed using Cellquest-Pro software on gated lymphocytes (based on forward scatter/side scatter properties). The percentage of proliferating lymphocytes was calculated by gating in the region (M1) of the FL-1 channel corresponding to the last 48 h of culture ([…]). […]"}, "[4]": {"system": "indoleamine 2,3-dioxygenase (IDO)", "test": "IDO induction in hASC", "conditions": "BAFF/APRIL activation of hASC"}, "[5]": {"system": "HLA-I, HLA-II, CD80 and CD86 expression", "test": "Flow cytometry of hASC activation molecules", "conditions": "APRIL or BAFF activation", "procedure": "hASCs were harvested, stained with appropriate fluorochrome-coupled antibodies and measured by flow cytometry (BD FACS Calibur). Data were analyzed using the FlowJo program (TreeStar, Ashland, Oreg.)."}, "[6]": {"test": "MTS assay (CellTiter AQueous One Solution Cell Proliferation Assay), hASC viability/growth", "conditions": "human, hASC cells; no APRIL/BAFF; control 100%; read-out: basal hASC growth in MTS assay with inhibitor added to medium", "procedure": "as §1"}, "[7]": {"conditions": "10, 30, 100 ng/ml, supernatants after five days"}}, "data": [{"molecule": "CXCL12: cytokine from Peprotech; enhances APRIL secretion", "values": [{"measurement": "APRIL secretion by hASC", "setting": "[1]; [7]", "result": "preferentially enhances APRIL"}]}, {"molecule": "BAFF: recombinant protein from R&D Systems; TNF ligand binding BCMA, TACI and BAFF-R", "values": [{"measurement": "hASC growth in MTS assay, considering basal growth 100%", "setting": "hASC [2]", "result": 140, "unit": "%"}, {"measurement": "promotion of cell growth when ERK was inhibited", "setting": "hASC [2]", "result": "did not promote cell growth"}, {"measurement": "percentage of BrdU-positive cells", "setting": "hASC [3]", "result": 29.4, "unit": "%"}, {"measurement": "phosphorylation of Akt", "setting": "Akt", "result": "induced rapid phosphorylation"}, {"measurement": "phosphorylation of ERK1/2", "setting": "ERK1/2", "result": "induced rapid phosphorylation"}, {"measurement": "phosphorylation of JNK, IκBα or p38", "setting": "JNK, IκBα or p38", "result": "no clear effect"}, {"measurement": "effect on ability of hASC to suppress PBMC proliferation", "setting": "PBMC proliferation", "result": "did not alter"}, {"measurement": "induction of IDO", "setting": "[4]", "result": "did not induce"}, {"measurement": "effect on hASC expression of HLA-I, HLA-II, CD80 and CD86", "setting": "[5]", "result": "do not affect"}]}, {"molecule": "O=c1cc(N2CCOCC2)oc2c(-c3ccccc3)cccc12", "note": "[LY294002, reference compound]", "values": [{"measurement": "viability at 6 days", "setting": "[6]", "result": 60.3, "unit": "%"}]}, {"molecule": "N#CC(=C(/N)Sc1ccccc1N)/C(C#N)=C(\\N)Sc1ccccc1N", "note": "[U0126, reference compound]", "values": [{"measurement": "decrease in basal hASC growth (MTS assay), result in words", "setting": "hASC [2]; inhibitor added to medium, no APRIL/BAFF", "result": "but not ERK inhibitor"}]}, {"molecule": "APRIL: recombinant protein from R&D Systems; TNF ligand binding BCMA and TACI", "values": [{"measurement": "hASC growth in MTS assay, considering basal growth 100%", "setting": "hASC [2]", "result": 114, "unit": "%"}, {"measurement": "promotion of cell growth when ERK was inhibited", "setting": "hASC [2]", "result": "did not promote cell growth"}, {"measurement": "percentage of BrdU-positive cells", "setting": "hASC [3]", "result": 27.5, "unit": "%"}, {"measurement": "phosphorylation of Akt", "setting": "Akt", "result": "induced rapid phosphorylation"}, {"measurement": "phosphorylation of ERK1/2", "setting": "ERK1/2", "result": "induced rapid phosphorylation"}, {"measurement": "phosphorylation of JNK, IκBα or p38", "setting": "JNK, IκBα or p38", "result": "no clear effect"}, {"measurement": "effect on ability of hASC to suppress PBMC proliferation", "setting": "PBMC proliferation", "result": "did not alter"}, {"measurement": "induction of IDO", "setting": "[4]", "result": "did not induce"}, {"measurement": "effect on hASC expression of HLA-I, HLA-II, CD80 and CD86", "setting": "[5]", "result": "do not affect"}]}, {"molecule": "poly I:C [reference compound]", "values": [{"measurement": "induction of APRIL or BAFF secretion by TLR ligand", "setting": "[1]; hASC activated with LPS or poly I:C", "result": "Neither ligand induced"}]}, {"molecule": "B1", "values": [{"measurement": "BAFF secretion by hASC", "setting": "[1]; [7]", "result": "promotes BAFF secretion"}]}]}
